Patent US20070128217A1 (priority 2003, published 2007)

Assays:
[1] = test system: antibodies in sera from SARS patients (sera 1a, 1b, 2, 6, 37, 62, London, SARS-yellow, SARS-green); format: binding, human; parameters: Binding of serum 6 to linear peptides of protein X1 of SARS-CoV Urbani / Binding of serum 37 to linear peptides of protein X1 of SARS-CoV Urbani / Binding of serum 6 to looped/cyclic peptide (PEPSCAN-ELISA) / Binding of serum 37 to looped/cyclic peptide (PEPSCAN-ELISA) / Binding of serum 37 to looped/cyclic peptides of protein X1 of SARS-CoV Urbani / Binding of serum 6 to linear peptides of protein X2 / Binding of serum 37 to linear peptides of protein X2 / Binding of serum 37 to looped/cyclic peptides of protein X2 of SARS-CoV Urbani / Binding of serum 6 to linear peptides of protein M of SARS-CoV Urbani / Binding of serum 37 to linear peptides of protein M of SARS-CoV Urbani / Binding of serum 6 to looped/cyclic peptides of protein M of SARS-CoV Urbani / Binding of serum 37 to looped/cyclic peptides of protein M of SARS-CoV Urbani / Binding of serum 6 to linear peptides of protein X3 of SARS-CoV Urbani / Binding of serum 37 to linear peptides of protein X3 of SARS-CoV Urbani / Binding of serum 37 to looped/cyclic peptides of protein X3 of SARS-CoV Urbani / Binding of serum 6 to linear peptides of protein X4 of SARS-CoV Urbani / Binding of serum 37 to linear peptides of protein X4 of SARS-CoV Urbani / Binding of serum 37 to looped/cyclic peptides of protein X4 of SARS-CoV Urbani / Binding of serum 6 to linear peptides of protein X5 of SARS-CoV Urbani / Binding of serum 37 to linear peptides of protein X5 of SARS-CoV Urbani / Binding of serum 37 to looped/cyclic peptides of protein X5 of SARS-CoV Urbani / Binding of serum 6 to linear peptides of protein N of SARS-CoV Urbani / Binding of serum 37 to linear peptides of protein N of SARS-CoV Urbani / Binding of serum 6 to linear peptide (PEPSCAN-ELISA) / Binding of serum 1a to looped/cyclic peptides of protein N of SARS-CoV Urbani / Binding of serum 1b to looped/cyclic peptides of protein N of SARS-CoV Urbani / Binding of serum 2 to looped/cyclic peptides of protein N of SARS-CoV Urbani / Binding of serum 6 to looped/cyclic peptides of protein N of SARS-CoV Urbani / Binding of serum 37 to looped/cyclic peptides of protein N of SARS-CoV Urbani / Binding of serum 62 to looped/cyclic peptides of protein N of SARS-CoV Urbani / Binding of serum London to looped/cyclic peptides of protein N of SARS-CoV Urbani / Binding of serum SARS-green to looped/cyclic peptides of protein N of SARS-CoV Urbani: unit not given here
[2] = test system: control sera (pooled serum of ten healthy LUMC hospital workers; commercial negative donor pooled serum from the Dutch bloodbank); format: binding, human; parameters: Binding of Control serum LUMC to linear peptides / Binding of Control serum Blood-bank to linear peptides / Binding of Control serum LUMC to looped peptides / Binding of Control Serum Blood-Bank to Looped peptides / Binding of Control serum LUMC to linear peptides of the protein M of SARS-CoV Urbani / Binding of Control serum Blood-bank to linear peptides of the protein M of SARS-CoV Urbani / Binding of Control serum LUMC to looped peptides of the protein M of SARS-CoV Urbani / Binding of Control Serum Blood-Bank to Looped peptides of the protein M of SARS-CoV Urbani: unit not given here
[3] = test system: rabbit serum obtained by immunizing a rabbit with the SARS-CoV strain Frankfurt 1; format: binding; parameters: Binding of a rabbit serum to linear peptides / Binding of a rabbit serum to looped peptides / Rabbit serum linear peptides / Rabbit serum looped peptides / Binding of a rabbit serum to linear peptides of protein N of SARS-CoV Urbani (Rabbit serum linear peptides) / Binding of a rabbit serum to looped/cyclic peptides of protein N of SARS-CoV Urbani (Rabbit serum looped peptides): unit not given here

Sequence: ILVRYNTRGNTYSTA
- Binding of serum 1a to linear peptides of protein X5 of SARS-CoV Urbani [1]: 0.7
- Binding of serum 1a to looped/cyclic peptides of protein X5 of SARS-CoV Urbani [1]: 0.5
- Binding of serum 1b to linear peptides of protein X5 of SARS-CoV Urbani [1]: 0.4
- Binding of serum 1b to looped/cyclic peptides of protein X5 of SARS-CoV Urbani [1]: 0.3
- Binding of serum 2 to linear peptides of protein X5 of SARS-CoV Urbani [1]: 0.6
- Binding of serum 2 to looped/cyclic peptides of protein X5 of SARS-CoV Urbani [1]: 0.6
- Binding of serum 6 to linear peptides of protein X5 of SARS-CoV Urbani [1]: 0.7
- Binding of serum 6 to looped/cyclic peptides of protein X5 of SARS-CoV Urbani [1]: 0.6
- Binding of serum 37 to linear peptides of protein X5 of SARS-CoV Urbani [1]: 0.6
- Binding of serum 37 to looped/cyclic peptides of protein X5 of SARS-CoV Urbani [1]: 0.4
- Binding of serum 62 to linear peptides of protein X5 of SARS-CoV Urbani [1]: 0.7
- Binding of serum 62 to looped/cyclic peptides of protein X5 of SARS-CoV Urbani [1]: 0.8
- Binding of serum London to linear peptides of protein X5 of SARS-CoV Urbani [1]: 0.6
- Binding of serum London to looped/cyclic peptides of protein X5 of SARS-CoV Urbani [1]: 0.2
- Binding of serum SARS-green to linear peptides of protein X5 of SARS-CoV Urbani [1]: 0.5
- Binding of serum SARS-green to looped/cyclic peptides of protein X5 of SARS-CoV Urbani [1]: 0.3
- Binding of serum SARS-yellow to linear peptides of protein X5 of SARS-CoV Urbani [1]: 0.2
- Binding of serum SARS-yellow to looped/cyclic peptides of protein X5 of SARS-CoV Urbani [1]: 0.8
- Binding of Control Serum Blood-Bank to Looped peptides [2]: 0.4
- Binding of Control serum Blood-bank to linear peptides [2]: 0.7
- Binding of Control serum LUMC to linear peptides [2]: 0.5
- Binding of Control serum LUMC to looped peptides [2]: 0.6
- Rabbit serum linear peptides [3]: 0.9
- Rabbit serum looped peptides [3]: 0.8

Sequence: HKKVSTNLCTHSFRK
- Binding of serum 1a to looped/cyclic peptides of protein X2 of SARS-CoV Urbani [1]: 0.6
- Binding of serum 1b to looped/cyclic peptides of protein X2 of SARS-CoV Urbani [1]: 0.4
- Binding of serum 2 to looped/cyclic peptides of protein X2 of SARS-CoV Urbani [1]: 0.8
- Binding of serum 6 to looped/cyclic peptides of protein X2 of SARS-CoV Urbani [1]: 0.6
- Binding of serum 37 to looped/cyclic peptides of protein X2 of SARS-CoV Urbani [1]: 0.5
- Binding of serum 62 to looped/cyclic peptides of protein X2 of SARS-CoV Urbani [1]: 0.7
- Binding of serum London to looped/cyclic peptides of protein X2 of SARS-CoV Urbani [1]: 0.3
- Binding of serum SARS-green to looped/cyclic peptides of protein X2 of SARS-CoV Urbani [1]: 0.3
- Binding of serum SARS-yellow to looped/cyclic peptides of protein X2 of SARS-CoV Urbani [1]: 0.6
- Recognition of the peptide by sera of SARS-CoV infected individuals, and form (linear, looped/cyclic) in which it is recognized [1]: recognized in linear form
- Binding of Control Serum Blood-Bank to Looped peptides [2]: 0.5
- Binding of Control serum Blood-bank to linear peptides [2]: 0.8
- Binding of Control serum LUMC to linear peptides [2]: 0.9
- Binding of Control serum LUMC to looped peptides [2]: 0.8
- Binding of a rabbit serum to linear peptides [3]: 0.4
- Binding of a rabbit serum to looped peptides [3]: 0.1

Sequence: ASFRLFARTRSMWSF
- Binding of serum 1a to linear peptides of protein M of SARS-CoV Urbani [1]: 0.7
- Binding of serum 1a to looped/cyclic peptides of protein M of SARS-CoV Urbani [1]: 0.6
- Binding of serum 1b to linear peptides of protein M of SARS-CoV Urbani [1]: 0.6
- Binding of serum 1b to looped/cyclic peptides of protein M of SARS-CoV Urbani [1]: 0.5
- Binding of serum 2 to linear peptides of protein M of SARS-CoV Urbani [1]: 0.5
- Binding of serum 2 to looped/cyclic peptides of protein M of SARS-CoV Urbani [1]: 0.5
- Binding of serum 6 to linear peptides of protein M of SARS-CoV Urbani [1]: 0.7
- Binding of serum 6 to looped/cyclic peptides of protein M of SARS-CoV Urbani [1]: 0.9
- Binding of serum 37 to linear peptides of protein M of SARS-CoV Urbani [1]: 0.4
- Binding of serum 37 to looped/cyclic peptides of protein M of SARS-CoV Urbani [1]: 0.5
- Binding of serum 62 to linear peptides of protein M of SARS-CoV Urbani [1]: 0.4
- Binding of serum 62 to looped/cyclic peptides of protein M of SARS-CoV Urbani [1]: 0.5
- Binding of serum London to linear peptides of protein M of SARS-CoV Urbani [1]: 0.3
- Binding of serum London to looped/cyclic peptides of protein M of SARS-CoV Urbani [1]: 0.2
- Binding of serum SARS-green to linear peptides of protein M of SARS-CoV Urbani [1]: 0.4
- Binding of serum SARS-green to looped/cyclic peptides of protein M of SARS-CoV Urbani [1]: 0.2
- Binding of serum SARS-yellow to linear peptides of protein M of SARS-CoV Urbani [1]: 0.2
- Binding of serum SARS-yellow to looped/cyclic peptides of protein M of SARS-CoV Urbani [1]: 0.6
- Binding of Control Serum Blood-Bank to Looped peptides of the protein M of SARS-CoV Urbani [2]: 0.7
- Binding of Control serum Blood-bank to linear peptides of the protein M of SARS-CoV Urbani [2]: 0.7
- Binding of Control serum LUMC to linear peptides of the protein M of SARS-CoV Urbani [2]: 0.6
- Binding of Control serum LUMC to looped peptides of the protein M of SARS-CoV Urbani [2]: 0.7
- Rabbit serum linear peptides [3]: 0.3
- Rabbit serum looped peptides [3]: 0.2

Sequence: LVVILRIGTQVLKTM
- Binding of serum 1a to linear peptides of protein X2 [1]: 0.7
- Binding of serum 1a to looped/cyclic peptides of protein X2 of SARS-CoV Urbani [1]: 0.6
- Binding of serum 1b to linear peptides of protein X2 [1]: 0.5
- Binding of serum 1b to looped/cyclic peptides of protein X2 of SARS-CoV Urbani [1]: 0.6
- Binding of serum 2 to linear peptides of protein X2 [1]: 0.5
- Binding of serum 2 to looped/cyclic peptides of protein X2 of SARS-CoV Urbani [1]: 0.4
- Binding of serum 6 to linear peptides of protein X2 [1]: 0.4
- Binding of serum 6 to looped/cyclic peptides of protein X2 of SARS-CoV Urbani [1]: 0.4
- Binding of serum 37 to linear peptides of protein X2 [1]: 0.6
- Binding of serum 37 to looped/cyclic peptides of protein X2 of SARS-CoV Urbani [1]: 0.4
- Binding of serum 62 to linear peptides of protein X2 [1]: 0.7
- Binding of serum 62 to looped/cyclic peptides of protein X2 of SARS-CoV Urbani [1]: 0.7
- Binding of serum London to linear peptides of protein X2 [1]: 0.5
- Binding of serum London to looped/cyclic peptides of protein X2 of SARS-CoV Urbani [1]: 0.3
- Binding of serum SARS-green to linear peptides of protein X2 [1]: 0.5
- Binding of serum SARS-green to looped/cyclic peptides of protein X2 of SARS-CoV Urbani [1]: 0.4
- Binding of serum SARS-yellow to linear peptides of protein X2 [1]: 0.7
- Binding of serum SARS-yellow to looped/cyclic peptides of protein X2 of SARS-CoV Urbani [1]: 0.5
- Binding of Control Serum Blood-Bank to Looped peptides [2]: 0.8
- Binding of Control serum Blood-bank to linear peptides [2]: 0.7
- Binding of Control serum LUMC to linear peptides [2]: 0.7
- Binding of Control serum LUMC to looped peptides [2]: 0.6
- Binding of a rabbit serum to linear peptides [3]: 0.4
- Binding of a rabbit serum to looped peptides [3]: 0.6

Sequence: LYALIYFLQCINACR
- Binding of serum 1a to linear peptides of protein X1 of SARS-CoV Urbani [1]: 0.7
- Binding of serum 1a to looped/cyclic peptide (PEPSCAN-ELISA) [1]: 0.4
- Binding of serum 1b to linear peptides of protein X1 of SARS-CoV Urbani [1]: 0.5
- Binding of serum 1b to looped/cyclic peptide (PEPSCAN-ELISA) [1]: 0.3
- Binding of serum 2 to linear peptides of protein X1 of SARS-CoV Urbani [1]: 0.5
- Binding of serum 2 to looped/cyclic peptide (PEPSCAN-ELISA) [1]: 0.6
- Binding of serum 6 to linear peptides of protein X1 of SARS-CoV Urbani [1]: 0.5
- Binding of serum 6 to looped/cyclic peptide (PEPSCAN-ELISA) [1]: 0.7
- Binding of serum 37 to linear peptides of protein X1 of SARS-CoV Urbani [1]: 0.6
- Binding of serum 37 to looped/cyclic peptide (PEPSCAN-ELISA) [1]: 0.6
- Binding of serum 62 to linear peptides of protein X1 of SARS-CoV Urbani [1]: 0.6
- Binding of serum 62 to looped/cyclic peptide (PEPSCAN-ELISA) [1]: 0.5
- Binding of serum London to linear peptides of protein X1 of SARS-CoV Urbani [1]: 0.3
- Binding of serum London to looped/cyclic peptide (PEPSCAN-ELISA) [1]: 1.2
- Binding of serum SARS-green to linear peptides of protein X1 of SARS-CoV Urbani [1]: 0.1
- Binding of serum SARS-green to looped/cyclic peptide (PEPSCAN-ELISA) [1]: 0.2
- Binding of serum SARS-yellow to linear peptides of protein X1 of SARS-CoV Urbani [1]: 0.4
- Binding of serum SARS-yellow to looped/cyclic peptide (PEPSCAN-ELISA) [1]: 0.2
- Binding of Control Serum Blood-Bank to Looped peptides [2]: 0.4
- Binding of Control serum Blood-bank to linear peptides [2]: 0.7
- Binding of Control serum LUMC to linear peptides [2]: 0.6
- Binding of Control serum LUMC to looped peptides [2]: 0.6
- Binding of a rabbit serum to linear peptides [3]: 0.2
- Binding of a rabbit serum to looped peptides [3]: 0.6
